# Biological target: T1, photosystem II (PS II) (Spinacia oleracea, UniProt P69560)
# T1 construct: the chloroplasts were osmotically ruptured and the thylakoid membranes were then obtained by centrifugation; from tissue; host or cells: fresh spinach leaves; thylakoid membranes isolated from chloroplasts
# Experiment: Measurement of the PS II activity in thylakoid membranes (DCPIP reduction)
# Type: biochemical
# Conditions: 100 μM test compound, spinach thylakoid membranes, DCPIP 120 μM, 10 min at 22° C. with exposure to light; for inhibition at 100 µM (stock): read-out: Effect (inhibition of PS II activity)
# Experimental: Cooled fresh spinach leaves were comminuted and homogenized in 50 mM phosphate buffer, pH 6.8. 10 mM KCl, 0.34 M sucrose (sucrose buffer) (blender, 1 g of plant material/ml). The homogenate was subsequently filtered through 4 layers of Miracloth and the chloroplasts were isolated by centrifugation, i.e. 10 min of centrifugation at 4400×g (4° C.). The sediment was suspended in 25 ml of sucrose buffer and re-centrifuged for 10 min at 4400×g (4° C.). The sediment was then suspended in 40 ml of 50 mM phosphate buffer, pH 6.8, 10 mM KCl, without sucrose. In this step, the chloroplasts were osmotically ruptured and the thylakoid membranes were then obtained by centrifugation (10 min, 4400×g, 4° C.). The membrane sediment was finally suspended in 20 ml of 50 mM phosphate buffer, pH 6.8, 10 mM KCl. Following protein determination and activity determination, the membrane suspension was divided into aliquots and frozen in liquid nitrogen. The aliquots were stored at −80° C. Under these conditions, the photosystem II preparation was storage stable for at least three months. The activity determination of photosystem II (PS II) was then carried out using the following test principle:
# The electron transfer from PS II to an artificial electron acceptor, 2,6-dichlorophenolindophenol (DCPIP), was measured with exposure to light. The concentration of the blue oxidized form of DCPIP was determined spectrophotometrically at wavelength λ=595 nm. […] The activity determination was carried out in microtiter plates (96 cavities) in a reaction volume of 200 μl. Here, 155 μl of dilute membrane suspension were initially charged in 50 mM of phosphate buffer, pH 6.8, 10 mM KCl. Depending on the activity of the PS II preparation, the dilution was adjusted such that the measurement of the decrease in absorption (λ=595 nm) was linear for at least 10 min. In each case 5 μl solution of the test compounds of a concentration of 100 μM in DMSO were added to the enzyme suspension; controls contained 5 μl DMSO; the final concentration of DMSO in the reaction batch was thus 2.5% (v/v); this concentration had no adverse effect on the enzymatic activity. On each microtiter plate, a known PS II inhibitor, for example metribuzin, was used as standard, which allowed the quality of the PS II test to be assessed. The reaction was started by addition of 40 μl DCPIP solution (600 μM in distilled water); the final concentration of DCPIP was 120 μM. Measurement of absorption was carried out over a period of 10 min at 22° C. and with exposure to light. Using metribuzin as comparative substance, the results for the efficacy of the compounds of the general formula (I) at 100 μM are stated in the table below using the following classification: ++++ (inhibition≥90%), +++ ([…]≥70%), ++ (70%>inhibition≥50%), + (50%>inhibition≥30%).
Structure (SMILES),Effect (inhibition of PS II activity),inhibition at 100 µM (stock)
COc1nsc(N2C(=O)C(C)=C(Cl)C2O)n1 (stereo not shown) [I.4-363],++++ (inhibition≥90%),–
CC1=C(C)C(O)N(c2nc(SCCOC(F)(F)C(F)(F)F)ns2)C1=O (stereo not shown) [I.2-339],++++ (inhibition≥90%),–
CCc1nsc(N2C(=O)N(C)CC2O)n1 (stereo not shown) [I.13-3],+++ (90%≥inhibition≥70%),–
CCCc1nsc(N2C(=O)C(Cl)=C(C)C2O)n1 (stereo not shown) [I.3-4],++++ (inhibition≥90%),–
"CC1=C(Cl)C(O)N(c2nc(C3(C)CC3)ns2)C1=O (stereo not shown) [I.4-335, 4-chloro-3-methyl-5-hydroxy-1-[3-(1-methylcycloprop-1-yl)-1,2,4-thiadiazol-5-yl]-1,5-dihydro-2H-pyrrol-2-one]",–,50 to 70%
CC1=C(C)C(O)N(c2nc(C3(C)CC3)ns2)C1=O (stereo not shown) [I.2-335],++++ (inhibition≥90%),–
CCCc1nsc(N2C(=O)C(C)=C(Cl)C2O)n1 (stereo not shown) [I.4-4],++++ (inhibition≥90%),–
"CC1=C(Cl)C(=O)N(c2nc(C3(C)CC3)ns2)C1O (stereo not shown) [I.3-335, 3-Chloro-4-methyl-5-hydroxy-1-[3-(1-methylcycloprop-1-yl)-1,2,4-thiadiazol-5-yl]-1,5-dihydro-2H-pyrrol-2-one]",–,> 90%
COCc1nsc(N2C(=O)C(Cl)=C(C)C2O)n1 (stereo not shown) [I.3-122],+++ (90%≥inhibition≥70%),–
CN1CC(O)N(c2nc(C(C)(C)C)ns2)C1=O (stereo not shown) [I.13-288],++ (70%>inhibition≥50%),–
COc1ccc(-c2nsc(N3C(=O)C(C)=C(C)C3O)n2)cc1 (stereo not shown) [I.2-83],++++ (inhibition≥90%),–
"COCc1nsc(N2C(=O)C(C)=C(C)C2O)n1 (stereo not shown) [I.2-122, 3,4-Dimethyl-5-hydroxy-1-(3-methoxymethyl-1,2,4-thiadiazol-5-yl)-1,5-dihydro-2H-pyrrol-2-one]",–,50 to 70%
CCc1nsc(N2C(=O)C(C)=C(Cl)C2O)n1 (stereo not shown) [I.4-3],++++ (inhibition≥90%),–
CC1=C(Cl)C(O)N(c2nc(C)ns2)C1=O (stereo not shown) [I.4-2],+++ (90%≥inhibition≥70%),–
"CC1=C(Cl)C(O)N(c2nc(C3CC3)ns2)C1=O (stereo not shown) [I.4-11, 4-chloro-3-methyl-5-hydroxy-1-(3-cyclopropyl-1,2,4-thiadiazol-5-yl)-1,5-dihydro-2H-pyrrol-2-one]",–,> 90%

# The remaining lines, values ahead:
Effect (inhibition of PS II activity),inhibition at 100 µM (stock),Structure (SMILES)
++ (70%>inhibition≥50%),–,O=C1C(Cl)=C(C2CCCCC2)C(O)N1c1nc(C2CC2)ns1 (stereo not shown) [I.9-11]
++++ (inhibition≥90%),–,CCc1nsc(N2C(=O)C(C)=C(Br)C2O)n1 (stereo not shown) [I.6-3]
++++ (inhibition≥90%),–,CCc1nsc(N2C(=O)C(Br)=C(C)C2O)n1 (stereo not shown) [I.5-3]
++++ (inhibition≥90%),–,CCCc1nsc(N2C(=O)C(C)=C(Br)C2O)n1 (stereo not shown) [I.6-4]
++++ (inhibition≥90%),–,CC1=C(Br)C(O)N(c2nc(C3CC3)ns2)C1=O (stereo not shown) [I.6-11]
+++ (90%≥inhibition≥70%),–,CC(C)c1nsc(N2C(=O)C(C3CCCCC3)=C(Cl)C2O)n1 (stereo not shown) [I.10-5]
++++ (inhibition≥90%),–,CCCc1nsc(N2C(=O)C(Br)=C(C)C2O)n1 (stereo not shown) [I.5-4]

# From patent US20200095241A1, “SUBSTITUTED 1,2,4-THIADIAZOLYLPYRROLONES AND 1,2,4-THIADIAZOLYLHYDANTOINS AND SALTS THEREOF AND USE THEREOF AS HERBICIDES” (Bayer CropScience Aktiengesellschaft, priority 2016, published 2020)
